Data taken from US6444668B1 (Wyeth, priority 1999, dated 2002).
Values joined by “and” are separate entries in the source; they are usually repeats but may differ in a detail not shown here. Identical values can stand only once. Like-named read-outs stand apart in the source and are kept apart here.

Legend:
[1] = tested on: rat uterine decidualization; assay: Rat decidualization assay; assay type: in vivo; conditions: for Decidualization IC50: half-maximal decrease in EC50 progesterone induced decidual response; for Estimated average EC50 (decidual response) / Estimated EC50 for uterine wet weight (decidual response): s.c.; for Estimated average EC50 (decidual response): average of dose-response curves; for Estimated EC50 for uterine wet weight (decidual response): individual studies
Protocol: 1. Rat Decidualization Assay
b. Animals (RACUC Protocol #5002)
The animals are treated once daily for seven days.
Uteri are removed and trimmed of fat.
Body weight: Mean total animal body weight (default-kg)
Decidual response: [(D-C)/C]x100%

T47D cells = assay: T47D cell proliferation assay (BrdU incorporation); assay type: cell-based; conditions: agonist mode, individual studies, read-out: Estimated EC50, BrdU incorporation
Protocol: 3. T47D Cell Proliferation Assay
The objective of this assay is the determination of progestational and antiprogestational potency by using a cell proliferation assay in T47D cells. A compound's effect on DNA synthesis in T47D cells is measured.
DMEM:F12 (1:1) (GIBCO, BRL) supplemented with 10% (v/v) fetal bovine serum (not heat-inactivated), 100U/ml penicillin, […] streptomycin, and 2 mM GlutaMax (GIBCO, BRL).
Minimum Essential Medium (MEM) (#51200-038GIBCO, BRL) phenol red-free supplemented with 0.5% charcoal stripped fetal bovine serum, 100U/ml penicillin, 200 mg/ml streptomycin, and 2 mM GlutaMax (GIBCO, BRL).
Stock T47 D cells are maintained in growth medium. For BrdU incorporation assay, cells are plated in 96-well plates (Falcon, Becton Dickinson Labware) at 10,000 cells/well in growth medium. […]
At the end of BrdU labeling, the medium is removed and BrdU incorporation is measured using a cell proliferation ELISA kit (#RPN 250, Amersham Life Science) according to manufacturer's instructions. […] Then 25 μl of 1 M sulfuric acid is added to each well to stop color reaction and optical density is read in a plate reader at 450 nm within 5 min.
Square root-transformed data are used for analysis of variance and nonlinear dose response curve fitting for both agonist and antagonist modes. […] EC50 or IC50 values are calculated from the retransformed values. […]

[2] = read-out: Decidualization, percentage inhibition at the dose specified

SMILES	melting point	Decidualization IC50 [1]	further results
CC1(C)OC(=O)Nc2ccc(-c3cc(F)cc(C(F)(F)F)c3)cc21 [Compound 2, 6-(3-Fluoro-5-trifluoromethyl-phenyl)-4,4-dimethyl-1,4-dihydro-benzo[d][1,3]oxazin-2-one]	207 to 208 °C	–	inhibition at 1 mg/kg [1, 2]: 50%
CC1(C)OC(=O)Nc2ccc(-c3cc(F)cc(Br)c3)cc21 [Compound 8, 6-(3-Bromo-5-fluorophenyl)-4,4-dimethyl-1,4-dihydrobenzo[d][1,3]oxazin-2-one]	182 to 183 °C	–	inhibition at 3 mg/kg [1, 2]: 50%
Cc1cc(C#N)sc1-c1ccc2c(c1)C1(CCCCC1)OC(=O)N2 [Compound 10, 5-(1,2-Dihydro-2-oxospiro[4H-3,1-benzoxazine-4,1-cyclohexan]-6-yl)-4-methyl-2-thiophenecabonitrile]	–	–	Decidualization, percentage inhibition at the dose specified ([1]; dose 10 mg/kg): 50% @ 1O
N#Cc1ccc(-c2ccc3c(c2)C2(CCCCC2)OC(=O)N3)s1 [Compound 11, 5-(1,2-Dihydro-2-oxospiro[4H-3,1-benzoxazine-4,1-cyclohexan]-6-yl)-2-thiophenecarbonitrile]	243 to 245 °C	–	inhibition at 10 mg/kg ([1]; dose 10 mg/kg, read-out: Decidualization, percentage inhibition at the dose specified): 50%
CC1(C)OC(=O)Nc2ccc(-c3ccc(C#N)s3)cc21 [Compound 12, 5-(4,4-Dimethyl-2-oxo-1,4-dihydro-2H-benzo[d][1,3]oxazin-6-yl)-thiophene-2-carbonitrile]	264 to 266 °C	3.34 ± 0.22 mg/kg	–
CC1(C)OC(=O)Nc2ccc(-c3cccc(Br)c3)cc21 [Compound 13]	174 to 175 °C	3 mg/kg	–
CC1(C)OC(=O)Nc2ccc(-c3cc(F)cc(Cl)c3)cc21 [Compound 14, 6-(3-Chloro-5fluoro-phenyl)-4,4dimethyl-1,4-dihydro-benzo[d][1,3]oxazin-2-one]	–	–	inhibition at 3 mg/kg [1, 2]: 50%
CC1(C)OC(=O)Nc2ccc(-c3cncc(Br)c3)cc21 [Compound 16, 6-(5-Bromo-pyridin-3-yl)-4,4-dimethyl-1,4-dihydro-benzo[d][1,3]oxazin-2-one]	211 to 212 °C	–	inhibition at 3 mg/kg [1, 2]: 50%
CC1(C)OC(=O)Nc2ccc(-c3csc(C#N)c3)cc21 [Compound 17, 4-(4.4-Dimethyl-2-oxo-1.4dihydro-2H-benzo[d][1,3]oxazin-6-yl)thiophene2-carbonitrile]	–	2.3 ± 0.46 mg/kg	–
CC1(C)OC(=O)Nc2ccc(-c3ccc(F)c(Cl)c3)cc21 [Compound 20, 6-(3-Chloro-4-fluoro-phenyl)-4,4-dimethyl-1,4-dihydro-benzo[d][1,3]oxazin-2-one]	–	1 mg/kg	–
C#C[C@]1(O)CC[C@H]2[C@@H]3CCC4=CC(=O)CC[C@@H]4[C@H]3CC[C@@]21CC [Levonorgestrel, reference compound]	–	–	Estimated average EC50 (decidual response) [1]: 0.10 mg/kg; Estimated EC50 for uterine wet weight (decidual response) [1]: 0.08 mg/kg and 0.12 mg/kg and 0.09 mg/kg (2×)
CC(=O)O[C@]1(C(C)=O)CC[C@H]2[C@@H]3C[C@H](C)C4=CC(=O)CC[C@]4(C)[C@H]3CC[C@@]21C [MPA, medroxyprogesterone acetate, reference compound]	–	–	EC50 (T47D cells; Homo sapiens, T47D): 19 pM; Estimated EC50 for uterine wet weight (decidual response) [1]: 0.42 mg/kg and 0.39 mg/kg (2×)
CC(=O)[C@H]1CC[C@H]2[C@@H]3CCC4=CC(=O)CC[C@]4(C)[C@H]3CC[C@]12C [Progesterone, reference compound]	–	–	Estimated average EC50 (decidual response) [1]: 5.62 mg/kg; Estimated EC50 for uterine wet weight (decidual response) [1]: 5.50 mg/kg
C[C@H](O)C(=O)[C@@]1(C)CC[C@H]2[C@@H]3CCC4=CC(=O)CCC4=C3CC[C@@]21C [Trimegestone]	–	–	EC50 (T47D cells): 17 pM and 14 pM and 19 pM

The next lines start with results.

melting point	Decidualization IC50 [1]	SMILES	further results
181 to 182 °C	–	CC1(C)OC(=O)Nc2ccc(-c3cccc(F)c3)cc21 [Compound 3, 6-(3-Fluoro-phenyl)-4,4-dimethyl-1,4-dihydro-benzo[d][1,3]-oxazin-2-one]	inhibition at 3 mg/kg [1, 2]: 80%
245 to 246 °C	–	CC1(C)OC(=O)Nc2ccc(-c3cc(Cl)cc(Cl)c3)cc21 [Compound 4, 6-(3,5dichloro-phenyl)-4,4-dimethyl-1,4-dihydrobenzo-[d][1,3]oxazin-2-one]	inhibition at 1 mg/kg [1, 2]: 60%
229 to 230 °C	–	CC1(C)OC(=O)Nc2ccc(-c3cc(C#N)ccc3F)cc21 [Compound 5, 3-(4,4-Dimethyl-2-oxo-1,4-dihydro-2H-benzo[d][1,3]oxazin-6-yl)-4-fluoro-benzonitrile]	inhibition at 1 mg/kg [1, 2]: 60%
260 to 261 °C	–	CC1(C)OC(=O)Nc2ccc(-c3cc(F)cc([N+](=O)[O-])c3)cc21 [Compound 6, 6-(3-Fluoro-5-nitro-phenyl)-4,4-dimethyl-1,4dihydro-benzo[d][1,3]oxazin-2-one]	inhibition at 1 mg/kg [1, 2]: 50%
250 to 252 °C	3 mg/kg	N#Cc1cc(F)cc(-c2ccc3c(c2)C(C2CC2)(C2CC2)OC(=O)N3)c1 [Compound 15, 3-(4,4Dicyclopropyl-2-oxo-1,4-dihydro-2H-benzo[d][1,3]oxazin-6-yl)5-fluoro-benzonitrile]	–
–	1.5 mg/kg	Cc1cc(C#N)sc1-c1ccc2c(c1)C(C)(C)OC(=O)N2 [Compound 18, 5-(4. 4-Dimethyl-2-oxo-1. 4-dihydro-2H-benzo[d][1,3]oxazin-6-yl)-4-methyl-thiophene-2-carbonitrile]	–
–	0.35 mg/kg	CC1(C)OC(=O)Nc2ccc(-c3cc(F)cc(C#N)c3)cc21 [Compound 19, 3-(4,4-Dimethyl-2-oxo-1,4-dihydro-2H-benzo[d][1,3]oxazin-6-yl)-5-fluorobenzonitrile]	–
